Experiments:
diabetic rats = details: cited from earlier work
rats = details: systemic administration; cited from earlier work
trypsin = test: Enzyme selectivity: trypsin; type: biochemical, human; details: substrate at Km concentration
Procedure: (§1) Human serine protease enzymes plasmin, thrombin and trypsin were assayed for enzymatic activity using an appropriate fluorogenic substrate. Protease activity was measured by monitoring the accumulation of liberated fluorescence from the substrate over 5 minutes. The linear rate of fluorescence increase per minute was expressed as percentage (%) activity. The Km for the cleavage of each substrate was determined by standard transformation of the Michaelis-Menten equation.

Human FXIa = Human FXIa (Homo sapiens (Human), UniProt P03951); test: Determination of the % inhibition / IC50 for FXIa; type: biochemical; details: 25° C., substrate Z-Gly-Pro-Arg-AFC
Human Factor XIIa = Human Factor XIIa (Homo sapiens (Human), UniProt P00748); test: Determination of the IC50 for FXIIa; type: biochemical; details: 25° C., substrate H-DPro-Phe-Arg-AFC
Human Factor XIIa, sequence (P00748 373-615): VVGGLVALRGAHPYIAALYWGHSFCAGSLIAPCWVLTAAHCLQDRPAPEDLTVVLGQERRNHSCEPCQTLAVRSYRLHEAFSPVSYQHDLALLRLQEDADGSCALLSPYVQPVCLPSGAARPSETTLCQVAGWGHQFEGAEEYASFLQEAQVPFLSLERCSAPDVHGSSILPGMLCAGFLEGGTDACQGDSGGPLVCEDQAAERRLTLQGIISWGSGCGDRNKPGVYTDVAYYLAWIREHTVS
Procedure: Factor XIIa inhibitory activity in vitro was determined using standard published methods (see e.g. Shori et al., Biochem. Pharmacol., 1992, 43, 1209; Baeriswyl et al., ACS Chem. Biol., 2015, 10 (8) 1861; Bouckaert et al., European Journal of Medicinal Chemistry 110 (2016) 181). Human Factor XIIa (Enzyme Research Laboratories) was incubated at 25° C. with the fluorogenic substrate H-DPro-Phe-Arg-AFC and various concentrations of the test compound. Residual enzyme activity (initial rate of reaction) was determined by measuring the […] and the IC50 value for the test compound was determined.

thrombin = thrombin (Homo sapiens (Human), UniProt P00734); details: read-out: IC50 Thrombin; substrate at Km concentration
Procedure: as §1

plasmin = plasmin (Homo sapiens (Human), UniProt P00747); details: read-out: IC50 Plasmin; substrate at Km concentration
plasmin, sequence (P00747 581-810): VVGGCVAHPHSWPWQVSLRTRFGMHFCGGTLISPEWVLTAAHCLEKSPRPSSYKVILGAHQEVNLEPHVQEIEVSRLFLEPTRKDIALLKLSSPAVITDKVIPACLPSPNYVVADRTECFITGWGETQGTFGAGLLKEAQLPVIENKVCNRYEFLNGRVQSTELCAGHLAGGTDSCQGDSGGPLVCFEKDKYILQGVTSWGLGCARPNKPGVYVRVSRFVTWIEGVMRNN
plasmin, sequence (P00747 97-580 partner): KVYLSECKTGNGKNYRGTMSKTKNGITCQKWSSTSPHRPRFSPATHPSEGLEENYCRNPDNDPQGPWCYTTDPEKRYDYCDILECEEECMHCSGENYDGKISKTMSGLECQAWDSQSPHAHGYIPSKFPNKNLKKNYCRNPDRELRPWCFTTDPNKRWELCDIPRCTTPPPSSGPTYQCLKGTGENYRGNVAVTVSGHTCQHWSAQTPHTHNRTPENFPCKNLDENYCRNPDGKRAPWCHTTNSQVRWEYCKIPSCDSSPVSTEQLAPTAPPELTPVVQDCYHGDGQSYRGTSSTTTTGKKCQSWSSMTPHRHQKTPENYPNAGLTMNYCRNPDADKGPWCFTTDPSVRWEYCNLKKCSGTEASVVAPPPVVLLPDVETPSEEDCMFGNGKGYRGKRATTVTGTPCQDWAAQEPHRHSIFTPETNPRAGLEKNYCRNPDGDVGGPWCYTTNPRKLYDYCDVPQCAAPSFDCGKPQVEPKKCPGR
Procedure: as §1

[1] = Metabolic stability in human liver microsomes; type: in vitro ADME; details: human liver microsomes 1 mg/mL, 5 μM test compound, 37° C.
Procedure: The metabolic stability was determined using standard published methods (Obach RS (1999) Drug Metab Dispos 27(11); 1350-135). Human liver microsomes (1 mg/mL; Corning) were incubated with 5 μM test compound at 37° C. on a shaking platform (150 rpm). Samples were taken at 0 and 60 min. The percentage test compound remaining at 60 minutes was determined by ratio of LCMS peak areas.

Human KLK1 = Human KLK1 (Homo sapiens (Human), UniProt P06870); test: Determination of the IC50 for KLK1; type: biochemical; details: 25° C., substrate H-DVal-Leu-Arg-AFC
Human KLK1, sequence (P06870 25-262): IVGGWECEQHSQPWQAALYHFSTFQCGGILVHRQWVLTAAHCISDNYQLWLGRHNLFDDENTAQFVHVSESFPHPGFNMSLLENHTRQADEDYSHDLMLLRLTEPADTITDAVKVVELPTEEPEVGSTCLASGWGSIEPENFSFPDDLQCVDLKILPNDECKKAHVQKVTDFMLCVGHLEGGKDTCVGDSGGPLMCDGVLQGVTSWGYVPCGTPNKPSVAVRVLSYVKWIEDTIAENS
Procedure: KLK1 inhibitory activity in vitro was determined using standard published methods (see e.g. Johansen et al., Int. J. Tiss. Reac. 1986, 8, 185; Shori et al., Biochem. Pharmacol., 1992, 43, 1209; Sturzebecher et al., Biol. Chem. Hoppe-Seyler, 1992, 373, 1025). Human KLK1 (Callbiochem) was incubated at 25° C. with the fluorogenic substrate H-DVal-Leu-Arg-AFC and various concentrations of the test compound. Residual enzyme activity (initial rate of reaction) was determined by measuring the change in optical absorbance at 410 nm and the IC50 value for the test compound was determined.

blood = details: contacting blood with the inhibitor; cited from earlier work
[2] = tested on: intrinsic pathway of coagulation; details: in vitro; cited from earlier work
[3] = In vitro permeability, Caco-2 model; type: in vitro ADME; details: human, apical to basolateral, 37° C.
Procedure: In vitro permeability was determined using the Caco-2 model for oral absorption. The methodology was adapted from standard published methods (Wang Z, Hop C. E., Leung K. H. and Pang J. (2000) J Mass Spectrom 35(1); 71-76). The Caco-2 monolayers were established in a Biocoat™ HTS fibrillar collagen 24 well multiwell insert system (1.0 μm, PET membrane, Corning 354803) in which 200,000 cells were seeded into each insert and maintained over 3 days before being utilised in the permeability assay. For the assay, 50 μM test compound is added to the apical side of the inserts and incubated for 1 hour at 37° C. on a shaking platform (120 rpm). Apical to basolateral transport was determined by measuring the test article in both compartments by LCMS following the 1 hour incubation. The integrity of the Caco-2 monolayers was confirmed by two methods, (i) comparison of pre- and post-experiment transepithelial electrical resistance (TEER) and, (ii) assessment of Lucifer Yellow flux.

[4] = tested on: LPS-induced disseminated intravascular coagulation; details: cited from earlier work

Human FXIa, sequence (P03951 388-625): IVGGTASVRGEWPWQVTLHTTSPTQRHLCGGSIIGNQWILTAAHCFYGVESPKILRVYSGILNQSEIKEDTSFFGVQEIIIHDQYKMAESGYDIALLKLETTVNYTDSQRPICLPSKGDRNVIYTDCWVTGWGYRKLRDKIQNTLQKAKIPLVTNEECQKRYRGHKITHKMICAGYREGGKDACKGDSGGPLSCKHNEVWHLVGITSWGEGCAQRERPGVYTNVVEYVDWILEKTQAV
Human FXIa, sequence (P03951 19-387 partner): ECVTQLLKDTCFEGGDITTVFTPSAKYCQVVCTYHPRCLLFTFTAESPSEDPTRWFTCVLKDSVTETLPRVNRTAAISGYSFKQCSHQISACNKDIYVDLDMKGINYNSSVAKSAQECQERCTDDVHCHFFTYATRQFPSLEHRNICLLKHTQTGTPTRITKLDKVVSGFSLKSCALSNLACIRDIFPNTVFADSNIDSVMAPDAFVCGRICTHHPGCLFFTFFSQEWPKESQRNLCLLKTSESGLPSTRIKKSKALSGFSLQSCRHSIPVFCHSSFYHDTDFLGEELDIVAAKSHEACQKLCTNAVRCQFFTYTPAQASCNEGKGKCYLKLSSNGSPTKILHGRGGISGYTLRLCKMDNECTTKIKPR

Compound: N=C(N)c1ccc(CNC(=O)c2cnn(Cc3ccccc3)c2)cc1 [ASP-440]
- Effect on retinal vascular permeability and retinal blood flow abnormalities (diabetic rats): ameliorated both retinal vascular permeability and retinal blood flow abnormalities
- Hematoma expansion (rats): reduced hematoma expansion

Compound: COCc1nn(Cc2ccc(Cn3cc(F)ccc3=O)cc2)cc1C(=O)NCc1nccc(OC)c1F [Compound of Formula A, 1-({4-[(5-fluoro-2-oxopyridin-1-yl)methyl]phenyl}methyl)-N-[(3-fluoro-4-methoxypyridin-2-yl)methyl]-3-(methoxymethyl)pyrazole-4-carboxamide]
- IC50 (trypsin): > 40 µM
- IC50 (Human FXIa): > 40 µM
- IC50 (Human Factor XIIa): > 40 µM
- IC50 (thrombin): > 40 µM
- IC50 (plasmin): > 40 µM
- % remaining at 60 minutes [1]: 25%
- IC50 (Human KLK1): > 40 µM

Compound: Ecallantide
- Activated clotting time (ACT) (blood): increase in activated clotting time
- Contact activated induced coagulation [2]: delay contact activated induced coagulation

Compound: COCc1nn(Cc2ccc(Cn3ccccc3=O)cc2)cc1C(=O)NCc1nccc(OC)c1F [Example 41 of WO2016/083820, N-[(3-fluoro-4-methoxypyridin-2-yl)methyl]-3-(methoxymethyl)-1-({4-[(2-oxopyridin-1-yl)methyl]phenyl}methyl)pyrazole-4-carboxamide]
- IC50 (Human FXIa): > 40 µM
- IC50 (Human Factor XIIa): > 40 µM
- Papp at 1 h, 50 μM [3]: 9 ×10⁻⁶ cm/s
- IC50 (Human KLK1): > 40 µM

Compound: Cl.NCC1CCC(C(=O)N[C@@H](Cc2ccccc2)C(=O)Nc2ccc(CC(=O)O)cc2)CC1 (stereo partly shown) [PKSI-527]
- Effect on platelet count, fibrinogen level and FDP level [4]: significantly suppressed the decrease in platelet count and fibrinogen level as well as the increase in FDP level

— patent US11584735B2, “Solid forms of a plasma kallikrein inhibitor and salts thereof” (KALVISTA PHARMACEUTICALS LIMITED, priority 2017, dated 2023)
